Patent US20150104426A1, “SKIN-CARE AGENT CONTAINING PLEUROTUS FERULAE FRUIT BODY EXTRACT OR PLEUROTUS FERULAE MYCELIUM EXTRACT” (AMI Cosmetic Co., Ltd., priority 2013, published 2015)

Assays:
[1] = test system: matrix metalloproteinase (MMP-1); assay: Repression of MMP-1 after ultraviolet irradiation (ELISA); type: cell-based; details: 0.02 wt %; human dermal fibroblasts, UVA 6.3 J/cm^2, 24 hours
Protocol: After UV irradiation and addition of samples (Pleurotus ferulae fruiting body extract, Pleurotus ferulae mycelium extract or Pleurotus ferulae mycelium culture, retinol), enzyme-linked immunosorbent assay (ELISA) was carried out to measure concentration of matrix metalloproteinase (MMP-1). Human dermal fibroblasts were irradiated with UVA at an energy of 6.3 J/cm^2 in a UV chamber, and conditions of the dose of ultraviolet radiation and culture time which maximize expression of matrix metalloproteinase (MMP-1) in fibroblasts were established through preliminary testing. A negative control group was wrapped with a foil and exposed to UVA environment for the same time. Here, UVA dose was measured using a UV radiometer. The cells during irradiation of UVA were cultured in the medium previously used. After UVA irradiation, the cells were cultured in a fresh medium containing samples for 24 hours and the medium were coated on 96-well plates. […] The cells were reacted with anti-mouse IgG (whole mouse, alkaline phosphatase conjugated) as a secondary antibody for about 60 minutes, and an alkaline phosphatase substrate solution (1 mg/mL ρ-nitrophenyl phosphate in diethanolamine buffer solution) at room temperature for 30 minutes, and absorbance at 405 nm was measured using a microplate reader. […]

type 1 procollagen = assay: Promotion of type 1 procollagen biosynthesis in fibroblasts; type: cell-based; details: 0.001 wt %; human dermal fibroblasts, 24 hours
Protocol: Human dermal fibroblasts isolated from infant epidermal tissues were obtained from Modern Tissue Technology (MTT, Korea) and cultured at 1×10^4 cell/cm2 in a DMEM/F-12 (3:1) medium containing 10% fetal bovine serum (FBS). The human dermal fibroblasts grown to about a confluence of 80% were sub-cultured at a split ratio of 1:3 four times and were then used for the testing.
For the test to measure the amount of procollagen, fibroblasts were cultured to a confluence of 90% or more on a 48-well plate, the Pleurotus ferulae fruiting body extract, the Pleurotus ferulae mycelium […], and after 24 hours, the amount of procollagen released in the medium was measured using a procollagen type-1C-peptide EIA kit (MK101, Takara, Japan). In addition, TGF-β was used as a positive control group.

[2] = test system: Human keratinocytes HaCaT cell line; assay: Scavenging of active oxygen in cells after UVB (DCFH-DA); type: cell-based; details: 0.01 wt %, UVB 20 mJ/cm^2
Protocol: A cell line used for the present test example was a Human keratinocytes HaCaT cell line obtained from Dr. Fusenig in the German Cancer Research Center. The cell line was seeded at a density of 2.0×10^4 cells per well into 96-well black plates for fluorescent measurement and cultured in DMEM (Dulbecco's Modified Eagle's Medium, FBS 10%, Gibco, USA) media containing penicillin and streptomycin at 37° C. in an atmosphere containing 5% CO2 for one day. […] Then, after 100 μl of different concentrates of HCSS was added to the test samples, fluorescence of DCF (dichlorofluorescein) initially oxidized with active oxygen was measured using a fluorescence plate reader (Ex: 485 nm, Em: 530 nm). Then, the samples were irradiated with UVB (20 mJ/cm^2), treated with 0.005, 0.01 and 0.02% by weight of the Pleurotus ferulae fruiting body extract, the Pleurotus ferulae mycelium extract and the Pleurotus ferulae mycelium culture and then measured for fluorescence using the fluorescence plate reader (Ex: 485 nm, Em: 530 nm). At this time, epigallocatechin gallate (EGCG) known to have potent antioxidative effects was used as a positive control group.

B16F1 melanin cells = assay: Inhibition of melanin synthesis in B16F1 melanin cells; type: cell-based, mice; details: 0.2 wt %; B16F1, 72 hours
Protocol: B16F1 melanocytes used for the present test example were cell lines derived from mice, which secrete a black pigment called “melanin”. The effect on inhibition of melanin synthesis of B16F1 melanin cells was measured as follows. […] After culturing for 72 hours, the cells were removed from trypsin-EDTA, counted and collected by centrifugation. Melanin in cells was assayed using a slightly modified version of Lotan's method (R Lotan and D Lotan, Cancer Res, 40: 3345-3350, 1980). Cell pellets were washed with PBS once and homogenized, 1 mL of a buffer solution (50 mM sodium phosphate, pH 6.8, 1% Triton X-100, 2 mM PMSF) was added to the cells, and the cells were crushed by vortex for 5 minutes. Melanin extracted by addition of 1N NaOH (10% DMSO) to a cell residue obtained by centrifugation (3,000 rpm, 10 minutes) was dissolved, absorbance of melanin at 405 nm was measured using a microplate reader, melanin was assayed, and inhibition of melanin production (%) of the sample was measured. In addition, a group not treated with the Pleurotus ferulae fruiting body extract, the Pleurotus ferulae mycelium extract or the Pleurotus ferulae mycelium culture was used as a control group, arbutin well-known as a whitening agent was used as a positive control group, and inhibition of melanin synthesis (%) by B16F1 melanin cells was calculated in accordance with Equation 4. […]

tyrosinase = assay: Inhibition of tyrosinase activity; type: biochemical, mushrooms; details: 0.2 wt %; L-tyrosine substrate
Protocol: Tyrosinase is an enzyme which facilitates oxidation of a substance called “tyrosine” in vivo and aids in production of melanin. Tyrosinase was isolated from mushrooms and purified, and was obtained from Sigma Aldrich Corp. A 0.1 mg/mL solution of L-tyrosine as a substrate in a 0.05 M sodium phosphate buffer solution (pH 6.8) was prepared. […] The test tube containing the reaction solution was quenched in ice to stop the reaction and transmissivity at a wavelength of 475 nm was measured using a spectrophotometer. A group treated with 0.5 mL of a buffer solution, instead of the Pleurotus ferulae fruiting body extract, the Pleurotus ferulae mycelium extract or the Pleurotus ferulae mycelium culture was used as a control group, and arbutin, a well-known whitening agent, was used as a positive control group. In addition, inhibition of tyrosinase activity by the respective samples were calculated in accordance with the following Equation 3. Inhibition of tyrosinase activity (%)=100−[(absorbance of reference group/absorbance of control group)]×100 Equation 3

[3] = Antioxidative effect, DPPH method; type: biochemical; details: sample 0.1 wt %
Protocol: The DPPH method measures free radical scavenge activity based on reduction power using a free radical, called “DPPH (2,2-di(4-tert-octylphenyl)-1-picrylhydrazyl)”. In the present test example, decrease in absorbance caused by reduction of DPPH by a test substance was compared with an absorbance of a blank test solution, and free radical scavenge rate at a wavelength of 560 nm was measured. Measurement was performed as follows. In addition, BHT, a well-known antioxidant, was used as a positive control group.
0.025, 0.05, 0.1 and 0.25% by weight of different concentrations of the Pleurotus ferulae fruiting body extracts, the Pleurotus ferulae mycelium extracts and the Pleurotus ferulae mycelium cultures were prepared and pipetted into on 96-well plates, and DPPH prepared from a 100 μM methanol solution was added thereto such that the total volume of the solution reached 200 μl. The solution was allowed to stand at 37° C. for 30 minutes, absorbance (St) at 560 nm of the solution was measured and free radical scavenge activity (%) was calculated using the following Equation 2.
Free radical scavenge activity (%)=[…]×100 Equation 2 […]

[4] = Antioxidative effect, NBT method (xanthine/xanthine oxidase); type: biochemical; details: sample 0.1 wt %
Protocol: In accordance with the NBT method, active oxygen is produced by xanthine and xanthine oxidase, and absorbance at a wavelength of 560 nm of a blue substance produced upon reaction between the active oxygen and nitro blue tetrazolium (NBT) is measured. In the present test example, an active oxygen scavenge rate was measured in accordance with the following method. In addition, BHT, a well-known antioxidant, was used as a positive control group.
2.4 mL of 0.05M sodium carbonate (Na2CO3), 0.1 mL of a 3 mM xanthine solution, 0.1 mL of a 3 mM EDTA solution, 0.1 mL of a BSA solution and 0.1 mL of a 0.72 mM NBT solution were added to vials, 0.025, 0.05, 0.1 and 0.25% by weight of sample solutions were added respectively thereto, followed by allowing to stand at 25° C. for 10 minutes. After standing, 0.1 mL of a xanthine oxidase solution was added to the each solution which was then rapidly stirred and cultured at 25° C. for 20 minutes. 0.1 mL of a 6 mM copper chloride (CuCl2) solution was added to the culture solution to stop the reaction. Absorbance (St) at 560 nm was measured. […] Absorbance (Bt) was measured in the same manner as above. Absorbance (Bo) of the blank of the sample solution was measured in the same manner as above using distilled water instead of the xanthine oxidase solution. In addition, active oxygen scavenge rate (%) was calculated by the following Equation 1. […]

Molecule: CC1=C(/C=C/C(C)=C/C=C/C(C)=C/CO)C(C)(C)CCC1 [Retinol, retinol]
- Repression of MMP-1 (%) [1]: 36%

Molecule: TGF-β
- Promotion of procollagen biosynthesis (%) (type 1 procollagen): 125%

Molecule: O=C(O[C@@H]1Cc2c(O)cc(O)cc2O[C@@H]1c1cc(O)c(O)c(O)c1)c1cc(O)c(O)c(O)c1 [EGCG, epigallocatechin gallate]
- Effect of scavenging active oxygen (%) [2]: 45%

Molecule: OC[C@H]1O[C@@H](Oc2ccc(O)cc2)[C@H](O)[C@@H](O)[C@@H]1O [Arbutin, arbutin]
- Inhibition of melanin synthesis (%) (B16F1 melanin cells): 55%
- Inhibition of tyrosinase activity (%) (tyrosinase): 54%

Molecule: Cc1cc(C(C)(C)C)c(O)c(C(C)(C)C)c1 [BHT]
- Free radical scavenge rate (antioxidative effect, %) [3]: 85%
- Active oxygen scavenge rate (antioxidative effect, %) [4]: 89%
